Drawing on US12428415B2, “Matriptase 2 inhibitors and uses thereof” (Disc Medicine, Inc., priority 2018, dated 2025), this text covers inhibition for 41 molecules.

For this assay, the target named is T1, Human Recombinant Matriptase 2 (Homo sapiens, UniProt Q8IU80).
T1 construct: purchased Enzo Life Sciences (an in-house preparation was also used) ALX-201-752-1
T1 sequence (Q8IU80 1-811): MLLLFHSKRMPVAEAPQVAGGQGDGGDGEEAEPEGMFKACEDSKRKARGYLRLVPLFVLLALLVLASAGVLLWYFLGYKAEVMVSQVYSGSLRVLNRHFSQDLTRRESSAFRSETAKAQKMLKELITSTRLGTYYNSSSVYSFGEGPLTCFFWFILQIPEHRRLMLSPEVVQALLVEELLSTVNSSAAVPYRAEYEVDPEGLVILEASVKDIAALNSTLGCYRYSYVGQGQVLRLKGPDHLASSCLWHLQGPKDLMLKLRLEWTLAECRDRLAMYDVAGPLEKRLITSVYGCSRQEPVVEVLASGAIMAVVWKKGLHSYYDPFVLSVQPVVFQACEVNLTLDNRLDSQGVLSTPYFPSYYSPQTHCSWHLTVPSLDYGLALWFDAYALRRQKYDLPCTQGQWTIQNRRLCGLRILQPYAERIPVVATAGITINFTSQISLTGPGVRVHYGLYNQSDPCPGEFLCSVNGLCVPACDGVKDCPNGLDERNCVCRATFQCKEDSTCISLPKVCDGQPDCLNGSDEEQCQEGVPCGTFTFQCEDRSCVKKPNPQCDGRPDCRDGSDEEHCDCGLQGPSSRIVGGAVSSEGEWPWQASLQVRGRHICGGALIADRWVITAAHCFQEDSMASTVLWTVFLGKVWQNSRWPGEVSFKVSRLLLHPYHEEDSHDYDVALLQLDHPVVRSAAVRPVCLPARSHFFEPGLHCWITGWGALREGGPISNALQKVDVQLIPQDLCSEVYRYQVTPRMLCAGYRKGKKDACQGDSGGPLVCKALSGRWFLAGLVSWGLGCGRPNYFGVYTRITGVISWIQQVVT
The assay is described as follows: Matriptase 2 fluorescence based inhibition assay, Method A (100 mM TRIS pH 9, 1 mg/mL BSA). It is filed as biochemical. As to conditions: 1 uM; Assay Used A; read-out: Mar-2 % inhibition at 1 uM. The procedure: Test compounds were evaluated for their potential to inhibit Human Recombinant Matriptase 2 (in-house and commercial protein from Enzo Life Sciences—cat log -ALX-201-752-1) using fluorescence based assay. The concentration of Recombinant Matriptase 2 and the substrate used in the assay was: 7 nM (commercial) and 15 nM (Inhouse Matriptase 2) and 100 μM (Boc-Gln-Ala-Arg-7-amido-4-methyl coumarin hydrobromide—Cat log: B4153-Sigma) respectively. The assay buffer used was 100 mM TRIS pH 9, 1 mg/mL BSA. The assay was performed using 384 well black flat bottom plate from grenier (Cat log: 781076) at 25° C. The enzyme and compound was preincubated for 30 mins, plate was read 60 mins after substrate addition at wavelength Ex: 360/Em: 480 nm. The final assay volume was 20 μl. Stock solution of compounds were initially prepared in DMSO and appropriate dilutions were made for screening and IC50 determination (final DMSO conc in the assay was 1%). All the measurements were carried out using the Spectramax M5, Molecular devices. The compounds were screened at 1 and 10 μM concentration and IC50 was determined for the interested compounds.
To determine IC50 values, dose response curves were generated by plotting percentage inhibition as a function of inhibitor concentration and the data was fitted to sigmoidal non-linear regression equation (variable slope) using Graph Pad prism software V7.

Take `N=C(N)c1ccc2cc(C(=O)Nc3ccc(N)nc3)n(Cc3ccc(C(F)(F)F)cc3)c2c1` [Compound I-1, N-(6-aminopyridin-3-yl)-6-carbamimidoyl-1-(4-(trifluoromethyl)benzyl)-1H-indole-2-carboxamide]: the inhibition at 1 µM fell in the range of 0 to 25%.

For `N=C(N)c1ccc2cc(C(=O)N[C@H]3CC[C@H](N)CC3)n(Cc3ccc(C(F)(F)F)cc3)c2c1` [Compound I-4], the inhibition at 1 µM fell in the range of 25 to 50%.

Take `N=C(N)c1ccc2cc(C(=O)NC3CCNCC3)n(Cc3ccc(C(F)(F)F)cc3)c2c1` [Compound I-5]: the inhibition at 1 µM was 25 to 50%.

As to `N=C(N)c1ccc2cc(C(=O)NC3CCN(CCCN)CC3)n(Cc3ccc(C(F)(F)F)cc3)c2c1` [Compound I-6, N-(1-(3-Aminopropyl)piperidin-4-yl)-6-carbamimidoyl-1-(4-(trifluoromethyl)benzyl)-1H indole-2-carboxamide], the inhibition at 1 µM was 25 to 50%.

For the molecule `N=C(N)c1ccc2cc(C(=O)NC3CCN(C(=O)CCN)CC3)n(Cc3ccc(C(F)(F)F)cc3)c2c1` [Compound I-8, N-(1-(3-aminopropanoyl)piperidin-4-yl)-6-carbamimidoyl-1-(4-(trifluoromethyl)benzyl)-1H-indole-2-carboxamide], the inhibition at 1 µM fell in the range of 25 to 50%.

As to `N=C(N)c1ccc2cc(C(=O)N[C@H]3CC[C@H](NC(=O)c4ccccn4)CC3)n(Cc3ccc(C(F)(F)F)cc3)c2c1` [Compound I-9, 6-carbamimidoyl-N-((1r,4r)-4-(picolinamido)cyclohexyl)-1-(4-(trifluoromethyl)benzyl)-1H-indole-2-carboxamide], the inhibition at 1 µM lay in the range of 25 to 50%.

Regarding `N=C(N)c1ccc2cc(C(=O)NCC3CCCCC3)n(Cc3ccc(C(F)(F)F)cc3)c2c1` [Compound I-10], the inhibition at 1 µM was in the range of 25 to 50%.

`N=C(N)c1ccc2cc(C(=O)NC3CCC(N)CC3)n(Cc3ccc(OC(F)(F)F)cc3)c2c1` (centres unmarked) [Compound I-11]: the inhibition at 1 µM lay in the range of 25 to 50%.

For `N=C(N)c1ccc2cc(C(=O)NCC3CCCCC3)n(Cc3ccc(OC(F)(F)F)cc3)c2c1` [Compound I-12], the inhibition at 1 µM fell in the range of 0 to 25%.

Regarding `CSc1ccc(Cn2c(C(=O)NC3CCC(N)CC3)cc3ccc(C(=N)N)cc32)cc1` (centres unmarked) [Compound I-13], the inhibition at 1 µM fell in the range of 50 to 75%.

On to `CC(C)c1ccc(Cn2c(C(=O)N[C@H]3CC=CCC3)cc3ccc(C(=N)N)cc32)cc1` [Compound I-14], for which the inhibition at 1 µM fell in the range of 0 to 25%.

`CC(C)c1ccc(Cn2c(C(=O)NC3CCC(F)(F)CC3)cc3ccc(C(=N)N)cc32)cc1` [Compound I-15]: the inhibition at 1 µM lay within 0 to 25%.

Turning to `CC(C)c1ccc(Cn2c(C(=O)NCC3CCCCC3)cc3ccc(C(=N)N)cc32)cc1` [Compound I-16], the inhibition at 1 µM was in the range of 0 to 25%.

With `CC(C)(C)c1ccc(Cn2c(C(=O)NC3CCC(N)CC3)cc3ccc(C(=N)N)cc32)cc1` (centres unmarked) [Compound I-17], the inhibition at 1 µM was in the range of 50 to 75%.

Turning to `N=C(N)c1ccc2cc(C(=O)N[C@H]3CC[C@H](N)CC3)n(Cc3cccnc3)c2c1` [Compound I-18], the inhibition at 1 µM lay within 25 to 50%.

Turning to `N=C(N)c1ccc2cc(C(=O)N[C@H]3CC[C@H](N)CC3)n(Cc3ccncc3)c2c1` [Compound I-19], the inhibition at 1 µM lay within 25 to 50%.

As for `N=C(N)c1ccc2cc(C(=O)N[C@H]3CC[C@H](N)CC3)n(Cc3ccc(C(=O)O)cc3)c2c1` [Compound I-20, 4-((2-(((1r,4r)-4-aminocyclohexyl)carbamoyl)-6-carbamimidoyl-1H-indol-1-yl)methyl)benzoic Acid], the inhibition at 1 µM fell in the range of 25 to 50%.

Regarding `COC(=O)c1ccc(Cn2c(C(=O)N[C@H]3CC[C@H](N)CC3)cc3ccc(C(=N)N)cc32)cc1` [Compound I-21, Methyl 4-((2-(((1r,4r)-4-aminocyclohexyl)carbamoyl)-6-carbamimidoyl-1H-indol-1-yl)methyl)-benzoate], the inhibition at 1 µM was 50 to 75%.

Consider `CCOC(=O)c1ccc(Cn2c(C(=O)N[C@H]3CC[C@H](N)CC3)cc3ccc(C(=N)N)cc32)cc1` [Compound I-22, Ethyl 4-((2-(((1r,4r)-4-aminocyclohexyl)carbamoyl)-6-carbamimidoyl-1H-indol-1-yl)methyl)-benzoate], for which the inhibition at 1 µM was 25 to 50%.

For `N=C(N)c1ccc2cc(C(=O)NCc3cccc(CN)c3)n(CCc3ccccc3)c2c1` [Compound I-24], the inhibition at 1 µM was in the range of 0 to 25%.

Regarding `N=C(N)c1ccc2cc(C(=O)Nc3ccc(C(N)=O)cc3)n(CCc3ccccc3)c2c1` [Compound I-25], the inhibition at 1 µM lay within 0 to 25%.

On to `N=C(N)c1ccc2cc(C(=O)Nc3cccc(C(N)=O)c3)n(CCc3ccccc3)c2c1` [Compound I-26], for which the inhibition at 1 µM is 0 to 25%.

For `N=C(N)c1ccc2cc(C(=O)N[C@H]3CC[C@H](N)CC3)n(CCc3ccccc3)c2c1` [Compound I-27], the inhibition at 1 µM was in the range of 50 to 75%.

For `N=C(N)c1ccc2cc(C(=O)NC3CCN(CCN)CC3)n(CCc3ccccc3)c2c1` [Compound I-28, N-(1-(2-Aminoethyl)piperidin-4-yl)-6-carbamimidoyl-1-phenethyl-1H-indole-2-carboxamide], the inhibition at 1 µM fell in the range of 25 to 50%.

For `N=C(N)c1ccc2cc(C(=O)N[C@H]3CC[C@H](N)CC3)n(CCc3ccc(F)cc3)c2c1` [Compound I-30], the inhibition at 1 µM is 25 to 50%.

Regarding `N=C(N)c1ccc2cc(C(=O)N[C@H]3CC[C@H](N)CC3)n(CCc3cccc(Br)c3)c2c1` [Compound I-31], the inhibition at 1 µM fell in the range of 25 to 50%.

On to `COc1ccc(CCn2c(C(=O)N[C@H]3CC[C@H](N)CC3)cc3ccc(C(=N)N)cc32)cc1` [Compound I-32], for which the inhibition at 1 µM fell in the range of 25 to 50%.

Consider `N=C(N)c1ccc2c(N)c(C(=O)N[C@H]3CC[C@H](N)CC3)n(CCc3ccc(C(F)(F)F)cc3)c2c1` [Compound I-33, 3-Amino-N-((1r,4r)-4-aminocyclohexyl)-6-carbamimidoyl-1-(4-(trifluoromethyl)-phenethyl)-1H-indole-2-carboxamide], for which the inhibition at 1 µM lay in the range of 0 to 25%.

Regarding `N=C(N)c1ccc2cc(C(=O)N[C@H]3CC[C@H](N)CC3)n(CCCc3ccccc3)c2c1` [Compound I-34], the inhibition at 1 µM was in the range of 25 to 50%.

As for `CCc1ccc(-c2cccc(CCn3c(C(=O)N[C@H]4CC[C@H](N)CC4)cc4ccc(C(=N)N)cc43)c2)cc1` [Compound I-35], the inhibition at 1 µM lay within 25 to 50%.

For `N=C(N)c1ccc2cc(C(=O)N[C@H]3CC[C@H](N)CC3)n(CS(=O)(=O)c3ccccc3)c2c1` [Compound I-39], the inhibition at 1 µM is 25 to 50%.

In the case of `N=C(N)c1ccc2cc(C(=O)Nc3cccc(C(F)(F)F)c3)n(CCS(=O)(=O)c3ccccc3)c2c1` [Compound I-40, 6-Carbamimidoyl-1-(2-(phenylsulfonyl)ethyl)-N-(3-(trifluoromethyl)phenyl)-1H-indole-2-carboxamide], the inhibition at 1 µM is 0 to 25%.

In the case of `N=C(N)c1ccc2cc(C(=O)Nc3cccc(F)c3)n(CCS(=O)(=O)c3ccccc3)c2c1` [Compound I-41], the inhibition at 1 µM fell in the range of 0 to 25%.

Consider `N=C(N)c1ccc2cc(C(=O)Nc3ccc(F)cc3)n(CCS(=O)(=O)c3ccccc3)c2c1` [Compound I-42], for which the inhibition at 1 µM is 0 to 25%.

As for `N=C(N)c1ccc2cc(C(=O)Nc3ccc(C(F)(F)F)cc3)n(CCS(=O)(=O)c3ccccc3)c2c1` [Compound I-43], the inhibition at 1 µM lay in the range of 0 to 25%.

`N=C(N)c1ccc2cc(C(=O)Nc3ccc(N4CCCC4)cc3)n(CCS(=O)(=O)c3ccccc3)c2c1` [Compound I-44]: the inhibition at 1 µM is 0 to 25%.

Turning to `CC1CCC(NC(=O)c2cc3ccc(C(=N)N)cc3n2CCS(=O)(=O)c2ccccc2)CC1` (centres unmarked) [Compound I-46], the inhibition at 1 µM lay in the range of 0 to 25%.

Consider `N=C(N)c1ccc2cc(C(=O)N[C@@H]3CC=CCC3)n(CCS(=O)(=O)c3ccccc3)c2c1` [Compound I-47], for which the inhibition at 1 µM lay within 0 to 25%.

Consider `N=C(N)c1ccc2cc(C(=O)NC3CCC(F)(F)CC3)n(CCS(=O)(=O)c3ccccc3)c2c1` [Compound I-48], for which the inhibition at 1 µM was 25 to 50%.

Regarding `N=C(N)c1ccc2cc(C(=O)NCC3CCCCC3)n(CCS(=O)(=O)c3ccccc3)c2c1` [Compound I-49], the inhibition at 1 µM lay in the range of 0 to 25%.

Consider `N=C(N)c1ccc2cc(C(=O)NCC3CCNCC3)n(CCS(=O)(=O)c3ccccc3)c2c1` [Compound I-50], for which the inhibition at 1 µM is 50 to 75%.

What is called inhibition is the percentage by which the read-out fell short of the control.
